In this test the target is T1, PA4991 (Pseudomonas aeruginosa, UniProt Q9HUH4).
T1 construct: N-terminal His6 tag cut with TEV protease; expressed in E. coli BL21(DE3)
T1 sequence (Q9HUH4 1-391): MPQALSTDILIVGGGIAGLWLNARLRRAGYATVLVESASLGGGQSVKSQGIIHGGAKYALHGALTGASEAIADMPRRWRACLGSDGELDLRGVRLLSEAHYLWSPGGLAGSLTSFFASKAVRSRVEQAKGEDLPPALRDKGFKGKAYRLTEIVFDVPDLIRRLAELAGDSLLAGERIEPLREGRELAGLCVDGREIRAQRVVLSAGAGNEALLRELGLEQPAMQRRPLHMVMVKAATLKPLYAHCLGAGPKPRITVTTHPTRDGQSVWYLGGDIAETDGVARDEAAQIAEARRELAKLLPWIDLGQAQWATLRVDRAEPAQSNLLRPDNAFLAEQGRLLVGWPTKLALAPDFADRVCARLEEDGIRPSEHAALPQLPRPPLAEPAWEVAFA
Put plainly: X-ray crystal structure, […] A; UV-visible spectrum. The following applies: noncovalent; co-purified cofactor, extended conformation; crystals pH 8.5, soaked in 1 mM phenylmercuric chloride. The test is classed as binding.

Each structure is given as a SMILES string.

Consider `Cc1cc2nc3c(=O)[nH]c(=O)nc-3n(C[C@H](O)[C@H](O)[C@H](O)COP(=O)(O)OP(=O)(O)OC[C@H]3O[C@@H](n4cnc5c(N)ncnc54)[C@H](O)[C@@H]3O)c2cc1C` [FAD], for which the “X-ray crystal structure, 2.40 A; UV-visible spectrum” value is “FAD is bound noncovalently to PA4991 in an extended conformation”.

The record behind these values is publication PMC4741190, “Crystal structure of the flavoenzyme PA4991 from Pseudomonas aeruginosa” (Acta Crystallographica. Section F, Structural Biology …, 2016).
